Activity calls are given as the source filed them. The calls are words filed in the database; no cut-off is given here.
What was measured:
[1] = system: BMMC; assay: Anti-osteoporosis activity in C57BL/6 mouse BMM cells assessed as inhibition of M-CSF/RANKL-induced osteoclastogenesis by measuring reduction in size and number of osteoclasts incubated for 5 days with media replenishment for every 48 hrs measured by TRAP-staining based analysis; format: functional, cell-based; conditions: dose 0.03-10 µM, time 5.0 day
[2] = system: BMMC; assay: Anti-osteoporosis activity in C57BL/6 mouse BMM cells assessed as inhibition of M-CSF/RANKL-induced bone resorption at 10 uM after 48 hrs by hydroxyapatite assay using Leica inverted microscope; format: functional; conditions: C57BL/6, BMMC
[3] = system: BMMC; assay: Downregulation of osteoclastogenesis-associated gene expression in C57BL/6 mouse BMM cells assessed as inhibition of M-CSF/RANKL-induced MMP9 expression at 5 uM after 5 days by qRT-PCR analysis; format: functional, cell-based; conditions: time 5.0 day
[4] = system: RAW264.7; assay: Inhibition of RANKL-induced NFkappaB signaling pathway in mouse RAW264.7 cells assessed as reduction in IkappaB alpha phosphorylation at 10 uM preincubated for 4 hrs followed by RANKL stimulation for 10 mins and measured by Western blot analysis; format: cell-based; conditions: time 250.0 min
[5] = system: Mus musculus; assay: Antiosteoporotic activity against OVX-induced bone loss C57BL/6 mouse model assessed as increase in trabecular bone mass in femoral metaphysis at 10 mg/kg, po QD for 4 weeks by microCT analysis; format: functional, organism-based; conditions: dose 10.0 mg/kg/day
[6] = system: Mus musculus; assay: Antiosteoporotic activity against OVX-induced bone loss C57BL/6 mouse model assessed as increase in bone volume/total bone volume in femoral metaphysis at 10 mg/kg, po QD for 4 weeks; format: functional, organism-based; conditions: dose 10.0 mg/kg/day
[7] = system: Mus musculus; assay: Antiosteoporotic activity against OVX-induced bone loss C57BL/6 mouse model assessed as decrease in osteocalcin secretion in serum at 10 mg/kg, po QD for 4 weeks; format: functional, organism-based; conditions: dose 10.0 mg/kg/day
[8] = system: Mus musculus; assay: Antiosteoporotic activity against OVX-induced bone loss C57BL/6 mouse model assessed as restoration of E2 level in serum at 10 mg/kg, po QD for 4 weeks; format: functional, organism-based; conditions: dose 10.0 mg/kg/day
[9] = Toxicity in OVX-induced bone loss C57BL/6 mouse model assessed as effect on heart morphology at 10 mg/kg, po QD for 4 weeks; format: organism-based; conditions: in vivo, 672 h
[10] = Toxicity in OVX-induced bone loss C57BL/6 mouse model assessed as effect on spleen morphology at 10 mg/kg, po QD for 4 weeks; format: organism-based; conditions: in vivo, 672 h, dose 10 mg/kg/day
[11] = Toxicity in OVX-induced bone loss C57BL/6 mouse model assessed as effect on serum CK level at 10 mg/kg, po QD for 4 weeks; format: organism-based; conditions: in vivo, 672 h, dose 10 mg/kg/day
[12] = Toxicity in OVX-induced bone loss C57BL/6 mouse model assessed as effect on serum LDH level at 10 mg/kg, po QD for 4 weeks; format: organism-based; conditions: in vivo, 672 h, dose 10 mg/kg/day

C=C1CC[C@@H]2[C@](C)(CNCc3ccc(F)cc3)[C@H](O)CC[C@@]2(C)[C@@H]1/C=C/C1=CCOC1=O
Activity [1]: Dose-Dependent Effect
inhibition at 10 µM [2]: 100%
inhibition [3]: Active
inhibition [4]: Active
Activity [5]: Active
Activity [6]: Active
Activity [7]: Active
Activity [8]: Active
Activity [9]: Non-Toxic
Activity [10]: Non-Toxic
Activity [11]: Non-Toxic
Activity [12]: Non-Toxic
